The subject of test [1] is S. aureus. Description: Time kill test (rapid germicidal activity) against S. aureus. It counts as cell-based, Staphylococcus aureus. The conditions noted are these: 2% active aqueous solution. As for the experimental part: (§1) a) Determination of Rapid Germicidal (Time Kill) Activity of Antibacterial Products. The activity of antibacterial compositions was measured by the time kill method, whereby the survival of challenged organisms exposed to an antibacterial test composition is determined as a function of time. In this test, a diluted aliquot of the composition is brought into contact with a known population of test bacteria for a specified time period at a specified temperature. The test composition is neutralized at the end of the time period, which arrests the antibacterial activity of the composition. The percent or, alternatively, log reduction from the original bacteria population is calculated. In general, the time kill method is known to those skilled in the art. The composition can be tested at any concentration from 0-100%. The choice of which concentration to use is at the discretion of the investigator, and suitable concentrations are readily determined by those skilled in the art. […] The test sample is placed in a sterile 250 ml beaker equipped with a magnetic stirring bar and the sample volume is brought to 100 ml, if needed, with sterile deionized water. All testing is performed in triplicate, the results are combined, and the average log reduction is reported. The choice of contact time period also is at the discretion of the investigator. Any contact time period can be chosen. […] The contact temperature also can be any temperature, typically room temperature, or about 25 degrees Celsius. The bacterial suspension, or test inoculum, is prepared by growing a bacterial culture on any appropriate solid media (e.g., agar). The bacterial population then is washed from the agar with sterile physiological saline and the population of the bacterial suspension is adjusted to about 10^8 colony forming units per ml (cfu/ml). The table below lists-the test bacterial cultures used in the following tests and includes the name of the bacteria, the ATCC (American Type Culture Collection) identification number, and the abbreviation for the name of the organism used hereafter. [table] The beaker containing the test composition is placed in a water bath (if constant temperature is desired), or placed on a magnetic stirrer (if ambient laboratory temperature is desired). The sample then is inoculated with 1.0 ml of the test bacteria suspension. The inoculum is stirred with the test composition for the predetermined contact time. […] Decimal dilutions to a countable range then are made. The dilutions can differ for different organisms. Plate selected dilutions in triplicate on TSA+ plates (TSA+ is Trypticase Soy Agar with Lecithin and Polysorbate 80). […] The control count (numbers control) is determined by conducting the procedure as described above with the exception that THT is used in place of the test composition. The plate counts are converted to cfu/ml for the numbers control and samples, respectively, by standard microbiological methods. The log reduction is calculated using the formula Log reduction=log10 (numbers control)−log10 (test sample survivors).

The test system of test [2] is E. coli. Description: Time kill test (rapid germicidal activity) against E. coli. Type of test: cell-based, Escherichia coli. The conditions noted are these: 2% active aqueous solution. As for the experimental part: as §1

As to Lauramine oxide, the “log reduction after 30 seconds S. aureus” value in test [1] (pH 4.93, 30 seconds) was 2.11 log; in test [1] (pH 5.50, 30 seconds), over 4.38 log; in test [1] (pH 6.02, 30 seconds) it was over 4.39 log; in test [1] (pH 6.5, 30 seconds), over 4.39 log; in test [1] (pH 7.0, 30 seconds), over 4.39 log; in test [1] (pH 7.53, 30 seconds) it was over 4.39 log. The “log reduction after 30 seconds S. aureus” value in test [1] (pH 8.94, 30 seconds) was 4.33 log; in test [1] (pH 10.14, 30 seconds), 3.75 log. Besides, the “log reduction after 30 seconds E. coli” value in test [2] (pH 4.93, 30 seconds) is over 5.32 log; in test [2] (pH 5.50, 30 seconds), over 4.70 log; in test [2] (pH 6.02, 30 seconds), over 4.70 log; in test [2] (pH 6.5, 30 seconds), over 4.70 log; in test [2] (pH 7.0, 30 seconds), over 5.32 log; in test [2] (pH 7.53, 30 seconds), 0.88 log. The “log reduction after 30 seconds E. coli” value in test [2] (pH 8.94, 30 seconds) was 0.27 log; in test [2] (pH 10.14, 30 seconds) it was 0.11 log.

The values above are taken from US6616922B2, “Antibacterial compositions” (The Dial Corporation, priority 2001, dated 2003).
